Assay results as given in ChEMBL document CHEMBL1201862, “PubChem BioAssay data set” (2004).
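A five-concentration, 48-hour dose response in 96-well plates underlies each endpoint, interpolated linearly between surrounding concentrations. Here, GI50 denotes the concentration required for 50% inhibition of growth.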 Calls of active or inactive are those of the source. Rule as the data show it: active = GI50 up to about 1.1 µM and inactive = higher.

Columns and labels:
Assay in all cases: growth of human tumour cells (NCI), 48 h
SK-MEL-2 = test system: SK-MEL-2
HCC 2998 = test system: HCC 2998
CAKI-1 = test system: CAKI-1
M14 = test system: M14
NCI-H460 = test system: NCI-H460
UO-31 = test system: UO-31
LOX IMVI = test system: LOX IMVI
SF-295 = test system: SF-295
ACHN = test system: ACHN
OVCAR-5 = test system: OVCAR-5
HT-29 = test system: HT-29
CCRF-CEM = test system: CCRF-CEM
SK-OV-3 = test system: SK-OV-3
SK-MEL-5 = test system: SK-MEL-5
T47D = test system: T47D
HOP-92 = test system: HOP-92
RPMI-8226 = test system: RPMI-8226
PC-3 = test system: PC-3
MCF7 = test system: MCF7

COC(=O)c1ccccc1N(C(=O)c1ccccc1)c1ccccc1C was tested, and the GI50 (SK-MEL-2) was 45 µM (inactive), the GI50 (HCC 2998) was 60 µM (inactive) and the GI50 (CAKI-1) was 34.4 µM (inactive). For the same compound, the GI50 (M14) was 24 µM (inactive), the GI50 (NCI-H460) was 29.8 µM (inactive) and the GI50 (UO-31) was 24.8 µM (inactive). The GI50 (LOX IMVI) was 48.1 µM (inactive), the GI50 (SF-295) was 44.2 µM (inactive) and the GI50 (ACHN) was 53.6 µM (inactive). The GI50 (OVCAR-5) was > 100 µM (inactive), the GI50 (HT-29) was 39.4 µM (inactive) and the GI50 (CCRF-CEM) was 27.3 µM (inactive). The GI50 (SK-OV-3) was 24.3 µM (inactive) and the GI50 (SK-MEL-5) was 30.8 µM (inactive).
With COc1cc(C2SCC(=O)N2NC(=O)c2ccc(NC(C)=O)cc2OC)ccc1O (stereo not drawn) the GI50 (SK-MEL-2) was 22.2 µM (inactive), the GI50 (CAKI-1) was > 100 µM (inactive) and the GI50 (T47D) was 67.1 µM (inactive). The GI50 (HOP-92) was 29.4 µM (inactive), the GI50 (RPMI-8226) was 0.883 µM (active) and the GI50 (M14) was > 100 µM (inactive). For the same compound, the GI50 (PC-3) was 37.4 µM (inactive), the GI50 (UO-31) was > 100 µM (inactive) and the GI50 (LOX IMVI) was > 100 µM (inactive). The GI50 (SF-295) was 20.5 µM (inactive), the GI50 (ACHN) was 63 µM (inactive) and the GI50 (MCF7) was 51.5 µM (inactive). The GI50 (OVCAR-5) was 23.1 µM (inactive), the GI50 (HT-29) was > 100 µM (inactive) and the GI50 (CCRF-CEM) was > 100 µM (inactive). For the same compound, the GI50 (SK-OV-3) was 6.27 µM (inactive).
For Nc1nc2c(c(=O)[nH]1)N=C(COP(=O)(O)OP(=O)(O)O)CN2, the GI50 (SK-MEL-2) was > 100 µM (inactive), the GI50 (HCC 2998) was > 100 µM (inactive) and the GI50 (CAKI-1) was > 100 µM (inactive). The GI50 (T47D) was > 100 µM (inactive), the GI50 (RPMI-8226) was > 100 µM (inactive) and the GI50 (M14) was > 100 µM (inactive). For the same compound, the GI50 (PC-3) was > 100 µM (inactive), the GI50 (UO-31) was > 100 µM (inactive) and the GI50 (LOX IMVI) was > 100 µM (inactive). For the same compound, the GI50 (SF-295) was > 100 µM (inactive), the GI50 (ACHN) was > 100 µM (inactive) and the GI50 (MCF7) was > 100 µM (inactive). The GI50 (OVCAR-5) was > 100 µM (inactive), the GI50 (HT-29) was > 100 µM (inactive) and the GI50 (CCRF-CEM) was > 100 µM (inactive). For the same compound, the GI50 (SK-OV-3) was > 100 µM (inactive) and the GI50 (SK-MEL-5) was > 100 µM (inactive).
In the case of CC(C)(CCCCC(C)(C)[N+](C)(C)C)[N+](C)(C)C, the GI50 (HCC 2998) is reported as > 100 µM (inactive), the GI50 (T47D) is reported as > 100 µM (inactive) and the GI50 (RPMI-8226) is reported as > 100 µM (inactive). The GI50 (M14) was > 100 µM (inactive), the GI50 (PC-3) was > 100 µM (inactive) and the GI50 (NCI-H460) was > 100 µM (inactive). The GI50 (UO-31) was > 100 µM (inactive), the GI50 (ACHN) was > 10 µM (inactive) and the GI50 (MCF7) was > 100 µM (inactive). For the same compound, the GI50 (OVCAR-5) was > 100 µM (inactive), the GI50 (HT-29) was > 100 µM (inactive) and the GI50 (CCRF-CEM) was > 100 µM (inactive). The GI50 (SK-OV-3) was > 100 µM (inactive) and the GI50 (SK-MEL-5) was > 100 µM (inactive).
In the case of COc1ccc(NC(=O)C(=O)c2c(O)c3ccc(O)cc3oc2=O)c([N+](=O)[O-])c1, the GI50 (SK-MEL-2) is reported as > 100 µM (inactive), the GI50 (HCC 2998) is reported as > 100 µM (inactive) and the GI50 (CAKI-1) is reported as > 100 µM (inactive). For the same compound, the GI50 (HOP-92) was > 100 µM (inactive), the GI50 (M14) was > 100 µM (inactive) and the GI50 (NCI-H460) was > 100 µM (inactive). For the same compound, the GI50 (UO-31) was > 100 µM (inactive), the GI50 (LOX IMVI) was > 100 µM (inactive) and the GI50 (SF-295) was > 100 µM (inactive). The GI50 (ACHN) was > 100 µM (inactive), the GI50 (OVCAR-5) was > 100 µM (inactive) and the GI50 (HT-29) was > 100 µM (inactive). The GI50 (CCRF-CEM) was > 100 µM (inactive), the GI50 (SK-OV-3) was > 100 µM (inactive) and the GI50 (SK-MEL-5) was > 100 µM (inactive).
With OC(CC(O)(C(F)(F)F)C(F)(F)F)c1ccc(C(O)CC(O)(C(F)(F)F)C(F)(F)F)cc1 (stereo not drawn) the GI50 (SK-MEL-2) was 22.3 µM (inactive), the GI50 (HCC 2998) was 17.2 µM (inactive) and the GI50 (CAKI-1) was 12.7 µM (inactive). For the same compound, the GI50 (T47D) was 13.3 µM (inactive), the GI50 (HOP-92) was 13 µM (inactive) and the GI50 (RPMI-8226) was 15.6 µM (inactive). The GI50 (M14) was 15.9 µM (inactive), the GI50 (PC-3) was 18.2 µM (inactive) and the GI50 (NCI-H460) was 14.7 µM (inactive). For the same compound, the GI50 (UO-31) was 10.8 µM (inactive), the GI50 (LOX IMVI) was 16.7 µM (inactive) and the GI50 (SF-295) was 18.2 µM (inactive). The GI50 (ACHN) was 14.4 µM (inactive), the GI50 (OVCAR-5) was 17.1 µM (inactive) and the GI50 (HT-29) was 12.3 µM (inactive). For the same compound, the GI50 (CCRF-CEM) was 16.8 µM (inactive), the GI50 (SK-OV-3) was 17 µM (inactive) and the GI50 (SK-MEL-5) was 13.9 µM (inactive).
In the case of CCON=C1C(C)(C)C(C)(C)C(C)(C)C1(C)C, the GI50 (SK-MEL-2) is reported as > 100 µM (inactive), the GI50 (CAKI-1) is reported as > 100 µM (inactive) and the GI50 (T47D) is reported as > 100 µM (inactive). For the same compound, the GI50 (HOP-92) was > 100 µM (inactive), the GI50 (RPMI-8226) was > 100 µM (inactive) and the GI50 (M14) was > 100 µM (inactive). The GI50 (PC-3) was > 100 µM (inactive), the GI50 (NCI-H460) was > 100 µM (inactive) and the GI50 (LOX IMVI) was > 100 µM (inactive). For the same compound, the GI50 (SF-295) was > 100 µM (inactive), the GI50 (ACHN) was > 100 µM (inactive) and the GI50 (MCF7) was > 100 µM (inactive). For the same compound, the GI50 (OVCAR-5) was > 100 µM (inactive), the GI50 (HT-29) was > 100 µM (inactive) and the GI50 (CCRF-CEM) was > 100 µM (inactive). The GI50 (SK-OV-3) was > 100 µM (inactive) and the GI50 (SK-MEL-5) was > 100 µM (inactive).
With CN(Cc1cnc2nc(N)nc(N)c2n1)c1ccc(C(=O)NCCS(=O)(=O)O)cc1 the GI50 (SK-MEL-2) was > 100 µM (inactive), the GI50 (HCC 2998) was > 100 µM (inactive) and the GI50 (CAKI-1) was > 100 µM (inactive). The GI50 (T47D) was > 100 µM (inactive), the GI50 (RPMI-8226) was > 100 µM (inactive) and the GI50 (M14) was > 100 µM (inactive). For the same compound, the GI50 (PC-3) was > 100 µM (inactive), the GI50 (NCI-H460) was > 100 µM (inactive) and the GI50 (UO-31) was > 100 µM (inactive). For the same compound, the GI50 (LOX IMVI) was > 100 µM (inactive), the GI50 (SF-295) was > 100 µM (inactive) and the GI50 (ACHN) was > 100 µM (inactive). The GI50 (MCF7) was > 100 µM (inactive), the GI50 (OVCAR-5) was > 100 µM (inactive) and the GI50 (HT-29) was > 100 µM (inactive). The GI50 (SK-OV-3) was > 100 µM (inactive) and the GI50 (SK-MEL-5) was > 100 µM (inactive).
